Test results: ChEMBL document CHEMBL1201862, “PubChem BioAssay data set” (2004)
Calls of active or inactive are those of the source.

Assays:
[1] = molecular target: Melanin-concentrating hormone receptor 1 (Homo sapiens, UniProt Q99705); assay: Late-stage fluorescence-based counterscreen for antagonists of the G-protein coupled receptor 7 (GPR7): cell-based dose response assay to identify antagonists of the melanin-concentrating hormone receptor 1 (MCHR1) Set 5.; format: functional
[2] = molecular target: T1, Neuropeptides B/W receptor type 1 (Homo sapiens, UniProt P48145); assay: GPR7 antagonist potency, late-stage follow-up, cell-based, fluorescence, dose response, set 5 (AID 588566); format: functional
T1 sequence (P48145 whole entry): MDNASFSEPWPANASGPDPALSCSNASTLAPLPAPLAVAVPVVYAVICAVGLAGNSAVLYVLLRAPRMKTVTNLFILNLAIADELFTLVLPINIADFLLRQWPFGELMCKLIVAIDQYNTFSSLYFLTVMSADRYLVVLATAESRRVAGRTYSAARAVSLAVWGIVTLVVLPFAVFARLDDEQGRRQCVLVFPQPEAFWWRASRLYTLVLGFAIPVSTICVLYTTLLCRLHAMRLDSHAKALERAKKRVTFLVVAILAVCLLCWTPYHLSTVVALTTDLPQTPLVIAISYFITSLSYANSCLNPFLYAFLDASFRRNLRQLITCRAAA

[3] = molecular target: 72 kDa type IV collagenase (Homo sapiens, UniProt P08253); assay: Dose Response validation of uHTS RPN11 inhibitor hits using a MMP-2 Fluorescence assay.; format: functional
[4] = molecular target: 26S proteasome non-ATPase regulatory subunit 14 (Homo sapiens, UniProt O00487); assay: inhibition of proteasome subunit RPN11 – biochemical, fluorescence polarization, uHTS hits, confirmation (AID 602368); format: functional
Prothrombin = Prothrombin (Bos taurus, UniProt P00735); assay: thrombin inhibition, dose response, biochemical, fluorescence polarization, uHTS hits (AID 602369); format: functional
[5] = molecular target: Induced myeloid leukemia cell differentiation protein Mcl-1 (Homo sapiens, UniProt Q07820); format: functional
[6] = molecular target: T2, Sentrin-specific protease 7 (Homo sapiens, UniProt Q9BQF6); assay: SENP7 protease inhibitors, SAR follow-up, biochemical, luminescence (AID 504497); format: functional
T2 sequence (Q9BQF6 whole entry): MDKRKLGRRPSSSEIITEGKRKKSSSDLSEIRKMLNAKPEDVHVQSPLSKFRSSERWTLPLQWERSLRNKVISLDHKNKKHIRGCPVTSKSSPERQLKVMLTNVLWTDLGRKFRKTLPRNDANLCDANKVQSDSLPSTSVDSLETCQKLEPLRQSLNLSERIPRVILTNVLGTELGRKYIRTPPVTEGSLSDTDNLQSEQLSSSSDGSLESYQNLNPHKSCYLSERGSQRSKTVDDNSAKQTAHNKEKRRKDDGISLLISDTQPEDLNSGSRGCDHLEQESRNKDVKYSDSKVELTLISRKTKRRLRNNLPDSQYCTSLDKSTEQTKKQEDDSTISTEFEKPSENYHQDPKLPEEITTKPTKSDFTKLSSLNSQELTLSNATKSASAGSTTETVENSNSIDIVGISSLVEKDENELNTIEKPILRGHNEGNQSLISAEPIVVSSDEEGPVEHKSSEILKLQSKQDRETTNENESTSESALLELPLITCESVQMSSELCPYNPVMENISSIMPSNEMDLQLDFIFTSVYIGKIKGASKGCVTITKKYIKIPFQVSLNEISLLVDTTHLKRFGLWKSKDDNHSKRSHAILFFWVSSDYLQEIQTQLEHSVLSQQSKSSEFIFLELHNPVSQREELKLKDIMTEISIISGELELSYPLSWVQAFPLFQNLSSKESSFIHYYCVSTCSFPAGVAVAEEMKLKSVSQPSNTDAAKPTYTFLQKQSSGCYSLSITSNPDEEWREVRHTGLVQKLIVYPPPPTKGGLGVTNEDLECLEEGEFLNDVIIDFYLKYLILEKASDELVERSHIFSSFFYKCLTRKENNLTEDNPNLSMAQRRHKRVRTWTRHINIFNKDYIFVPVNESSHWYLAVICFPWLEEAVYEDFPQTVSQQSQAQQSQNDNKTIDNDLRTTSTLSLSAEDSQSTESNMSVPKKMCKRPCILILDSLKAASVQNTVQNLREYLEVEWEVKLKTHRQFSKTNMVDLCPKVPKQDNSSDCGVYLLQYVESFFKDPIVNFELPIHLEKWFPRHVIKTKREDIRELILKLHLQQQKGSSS

[7] = molecular target: T3, Sentrin-specific protease 6 (Homo sapiens, UniProt Q9GZR1); assay: SAR Analysis of small molecule inhibitors of Sentrin-specific protease 6 (SENP6) using a Luminescent assay. [Related pubchem assays (depositor defined):AID2582, AID2599]; format: functional
T3 sequence (Q9GZR1 whole entry): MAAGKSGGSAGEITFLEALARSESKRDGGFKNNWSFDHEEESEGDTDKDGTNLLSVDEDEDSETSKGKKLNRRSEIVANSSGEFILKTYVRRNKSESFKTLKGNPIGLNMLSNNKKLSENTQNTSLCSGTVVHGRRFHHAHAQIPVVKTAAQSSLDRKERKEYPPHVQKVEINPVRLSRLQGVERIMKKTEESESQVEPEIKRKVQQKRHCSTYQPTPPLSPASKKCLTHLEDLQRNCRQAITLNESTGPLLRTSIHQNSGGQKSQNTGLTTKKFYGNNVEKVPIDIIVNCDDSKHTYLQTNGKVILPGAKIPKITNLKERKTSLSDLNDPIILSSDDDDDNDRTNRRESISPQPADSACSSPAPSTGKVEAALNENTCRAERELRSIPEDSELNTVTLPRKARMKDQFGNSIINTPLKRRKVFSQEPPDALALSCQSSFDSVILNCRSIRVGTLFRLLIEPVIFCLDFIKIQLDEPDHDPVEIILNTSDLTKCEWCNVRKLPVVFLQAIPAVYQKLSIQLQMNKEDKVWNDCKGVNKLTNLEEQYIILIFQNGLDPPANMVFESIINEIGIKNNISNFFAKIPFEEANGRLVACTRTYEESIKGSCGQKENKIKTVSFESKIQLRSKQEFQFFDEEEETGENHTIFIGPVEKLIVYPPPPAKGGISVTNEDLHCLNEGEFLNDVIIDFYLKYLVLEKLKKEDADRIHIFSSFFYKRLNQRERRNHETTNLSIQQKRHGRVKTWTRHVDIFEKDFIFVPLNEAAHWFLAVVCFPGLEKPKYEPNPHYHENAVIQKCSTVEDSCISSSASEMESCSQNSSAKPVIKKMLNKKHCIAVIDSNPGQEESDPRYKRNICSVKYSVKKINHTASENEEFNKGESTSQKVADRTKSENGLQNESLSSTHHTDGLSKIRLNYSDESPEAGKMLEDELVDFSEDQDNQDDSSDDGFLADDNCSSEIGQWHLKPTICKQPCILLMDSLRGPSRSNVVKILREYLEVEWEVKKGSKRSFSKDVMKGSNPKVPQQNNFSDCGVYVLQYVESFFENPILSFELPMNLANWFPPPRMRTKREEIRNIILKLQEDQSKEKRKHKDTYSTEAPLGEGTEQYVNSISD

Caspase-3 = molecular target: T4, Caspase-3 (Homo sapiens, UniProt P42574); assay: SAR Analysis of small molecule inhibitors of Sentrin-specific proteases (SENPs) using a Caspase-3 Selectivity assay. [Related pubchem assays (depositor defined):AID2540, AID2599, AID434973, AID489001]; format: functional
T4 sequence (P42574 whole entry): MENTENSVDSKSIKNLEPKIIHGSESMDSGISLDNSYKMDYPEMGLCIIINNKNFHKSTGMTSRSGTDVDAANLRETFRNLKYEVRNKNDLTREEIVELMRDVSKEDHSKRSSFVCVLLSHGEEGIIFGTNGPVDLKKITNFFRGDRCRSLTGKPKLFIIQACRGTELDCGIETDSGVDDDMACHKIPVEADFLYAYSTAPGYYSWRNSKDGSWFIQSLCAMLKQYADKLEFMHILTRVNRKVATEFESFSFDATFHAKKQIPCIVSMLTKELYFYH

[8] = molecular target: T5, Sentrin-specific protease 8 (Homo sapiens, UniProt Q96LD8); assay: SENP8 protease inhibitors, SAR follow-up, biochemical, luminescence (AID 504501); format: functional
T5 sequence (Q96LD8 whole entry): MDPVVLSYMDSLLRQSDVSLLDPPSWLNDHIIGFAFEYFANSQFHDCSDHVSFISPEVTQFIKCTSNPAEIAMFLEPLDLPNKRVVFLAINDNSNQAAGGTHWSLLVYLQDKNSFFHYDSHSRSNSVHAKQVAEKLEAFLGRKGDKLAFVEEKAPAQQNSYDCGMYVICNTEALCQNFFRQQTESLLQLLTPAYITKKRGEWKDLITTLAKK

[9] = molecular target: Leukocyte tyrosine kinase receptor (Homo sapiens, UniProt P29376); assay: Navigating the Kinome. Panel member name: LTK; format: functional
[10] = molecular target: Serine/threonine-protein kinase TAO1 (Homo sapiens, UniProt Q7L7X3); format: functional
[11] = molecular target: Tyrosine-protein phosphatase non-receptor type 5 (Homo sapiens, UniProt P54829); assay: STEP phosphatase inhibitors, confirmation, biochemical, fluorescence intensity, uHTS hits (AID 602372); format: functional; details: read-out: IC50_Mean
[12] = molecular target: Tyrosine-protein phosphatase non-receptor type 11 (Homo sapiens, UniProt Q06124); assay: SHP2 phosphatase inhibition, dose response, selectivity assay for STEP inhibitor project, biochemical (AID 602367); format: functional; details: read-out: IC50_Mean
[13] = molecular target: Dual specificity protein phosphatase 3 (Homo sapiens, UniProt P51452); assay: VHR phosphatase inhibition, dose response, selectivity assay for STEP inhibitor project, biochemical (AID 602374); format: functional; details: read-out: IC50_Mean
Insulin-degrading enzyme [14] = molecular target: T6, Insulin-degrading enzyme (Homo sapiens, UniProt P14735); assay: activators of recombinant IDE enzyme, dose response, counter-screen for IDE activator project, biochemical, fluorescence polarization (AID 588681)
T6 sequence (P14735 whole entry): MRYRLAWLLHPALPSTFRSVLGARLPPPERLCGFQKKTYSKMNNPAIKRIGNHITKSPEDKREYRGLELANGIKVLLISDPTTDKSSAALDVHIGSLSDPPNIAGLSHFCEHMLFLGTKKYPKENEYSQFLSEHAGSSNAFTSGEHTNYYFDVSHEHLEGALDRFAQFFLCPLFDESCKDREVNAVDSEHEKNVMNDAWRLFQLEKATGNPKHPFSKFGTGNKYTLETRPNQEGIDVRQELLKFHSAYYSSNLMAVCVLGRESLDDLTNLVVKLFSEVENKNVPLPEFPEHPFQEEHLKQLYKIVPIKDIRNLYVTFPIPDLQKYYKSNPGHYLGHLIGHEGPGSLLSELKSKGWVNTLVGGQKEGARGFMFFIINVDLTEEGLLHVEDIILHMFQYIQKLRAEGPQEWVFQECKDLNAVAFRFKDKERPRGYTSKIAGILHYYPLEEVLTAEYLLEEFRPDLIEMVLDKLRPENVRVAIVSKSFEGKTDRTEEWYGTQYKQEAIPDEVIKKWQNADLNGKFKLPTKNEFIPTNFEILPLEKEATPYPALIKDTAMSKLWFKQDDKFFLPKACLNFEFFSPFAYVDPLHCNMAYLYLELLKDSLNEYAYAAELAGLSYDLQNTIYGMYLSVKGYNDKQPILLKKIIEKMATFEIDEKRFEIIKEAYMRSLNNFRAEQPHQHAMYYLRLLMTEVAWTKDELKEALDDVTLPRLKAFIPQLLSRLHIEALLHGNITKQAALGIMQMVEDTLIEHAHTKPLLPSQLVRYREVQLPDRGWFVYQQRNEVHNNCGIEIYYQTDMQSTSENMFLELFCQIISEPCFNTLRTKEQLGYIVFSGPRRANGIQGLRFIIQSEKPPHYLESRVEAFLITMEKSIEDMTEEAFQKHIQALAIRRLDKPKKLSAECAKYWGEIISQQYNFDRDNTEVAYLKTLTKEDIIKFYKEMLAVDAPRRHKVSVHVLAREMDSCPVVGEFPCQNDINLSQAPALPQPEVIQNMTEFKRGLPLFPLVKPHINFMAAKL

Insulin-degrading enzyme [15] = molecular target: T6, Insulin-degrading enzyme; assay: activators of endogenous IDE in HEK cells, dose response, cell-based, fluorescence polarization (AID 588439); format: functional
HEK293 [16] = assay: optical interference in Abeta FP readout, dose response, artefact control for IDE activator project, biochemical, fluorescence polarization (AID 588442); format: functional, cell-based; details: Homo sapiens
HEK293 [17] = assay: HEK cell cytotoxicity by LDH release, dose response, cytotoxicity control for IDE activator project, fluorescence, HEK cells (AID 588440); format: functional, cell-based; details: Homo sapiens;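 also: cytotoxicity by LDH release measuring loss of membrane integrity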

Chain of 72 kDa type IV collagenase (P08253 whole entry): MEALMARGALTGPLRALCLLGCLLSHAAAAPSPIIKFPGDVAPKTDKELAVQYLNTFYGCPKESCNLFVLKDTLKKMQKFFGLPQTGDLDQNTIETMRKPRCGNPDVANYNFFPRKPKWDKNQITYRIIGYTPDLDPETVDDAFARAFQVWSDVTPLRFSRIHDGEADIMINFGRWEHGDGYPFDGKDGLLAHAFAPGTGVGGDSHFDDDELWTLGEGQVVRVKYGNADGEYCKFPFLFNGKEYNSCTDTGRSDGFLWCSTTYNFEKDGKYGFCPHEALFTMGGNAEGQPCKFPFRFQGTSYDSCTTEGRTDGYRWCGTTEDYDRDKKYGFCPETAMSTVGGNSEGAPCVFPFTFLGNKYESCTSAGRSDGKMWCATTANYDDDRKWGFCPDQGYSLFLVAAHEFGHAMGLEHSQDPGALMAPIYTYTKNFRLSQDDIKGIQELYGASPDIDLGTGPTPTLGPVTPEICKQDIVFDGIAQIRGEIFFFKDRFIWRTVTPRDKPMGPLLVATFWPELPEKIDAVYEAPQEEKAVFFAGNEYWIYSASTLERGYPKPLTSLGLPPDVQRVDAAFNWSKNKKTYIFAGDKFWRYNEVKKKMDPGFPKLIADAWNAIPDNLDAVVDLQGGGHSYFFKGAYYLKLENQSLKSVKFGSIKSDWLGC
Chain of 26S proteasome non-ATPase regulatory subunit 14 (O00487 whole entry): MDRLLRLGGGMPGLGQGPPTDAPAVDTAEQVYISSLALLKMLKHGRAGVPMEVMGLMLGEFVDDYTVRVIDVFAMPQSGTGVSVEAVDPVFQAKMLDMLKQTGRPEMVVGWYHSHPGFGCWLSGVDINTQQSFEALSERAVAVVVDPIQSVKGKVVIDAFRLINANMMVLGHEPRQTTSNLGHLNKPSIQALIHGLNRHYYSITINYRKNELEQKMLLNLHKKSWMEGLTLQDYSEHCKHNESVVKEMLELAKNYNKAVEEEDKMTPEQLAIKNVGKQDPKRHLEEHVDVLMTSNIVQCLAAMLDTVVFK
Chain of Melanin-concentrating hormone receptor 1 (Q99705 whole entry): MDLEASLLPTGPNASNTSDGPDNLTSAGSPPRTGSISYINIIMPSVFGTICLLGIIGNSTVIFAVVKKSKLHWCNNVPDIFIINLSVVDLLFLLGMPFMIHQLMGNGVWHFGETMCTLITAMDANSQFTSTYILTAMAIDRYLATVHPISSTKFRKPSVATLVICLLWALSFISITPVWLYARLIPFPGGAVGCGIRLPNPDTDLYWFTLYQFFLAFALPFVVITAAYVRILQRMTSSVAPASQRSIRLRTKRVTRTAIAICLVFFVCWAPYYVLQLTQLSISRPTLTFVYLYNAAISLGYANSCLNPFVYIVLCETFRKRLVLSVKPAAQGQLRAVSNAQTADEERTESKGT
Chain of Tyrosine-protein phosphatase non-receptor type 11 (Q06124 whole entry): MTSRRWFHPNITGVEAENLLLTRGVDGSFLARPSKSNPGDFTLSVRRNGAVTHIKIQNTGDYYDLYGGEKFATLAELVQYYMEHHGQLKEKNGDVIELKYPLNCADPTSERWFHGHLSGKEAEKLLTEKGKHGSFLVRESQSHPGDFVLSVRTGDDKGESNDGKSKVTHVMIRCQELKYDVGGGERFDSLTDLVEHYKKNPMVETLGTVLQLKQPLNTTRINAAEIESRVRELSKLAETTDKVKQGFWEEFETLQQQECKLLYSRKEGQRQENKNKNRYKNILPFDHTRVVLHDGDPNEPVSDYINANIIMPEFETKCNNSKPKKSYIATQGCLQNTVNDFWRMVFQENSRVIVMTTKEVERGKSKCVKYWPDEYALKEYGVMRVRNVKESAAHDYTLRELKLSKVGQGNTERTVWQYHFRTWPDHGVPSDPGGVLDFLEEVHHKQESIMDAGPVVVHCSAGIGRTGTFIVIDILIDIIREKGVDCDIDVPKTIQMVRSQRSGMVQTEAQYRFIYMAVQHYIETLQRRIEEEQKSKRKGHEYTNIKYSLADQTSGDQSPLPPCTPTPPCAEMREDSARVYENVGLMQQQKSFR
Chain of Dual specificity protein phosphatase 3 (P51452 whole entry): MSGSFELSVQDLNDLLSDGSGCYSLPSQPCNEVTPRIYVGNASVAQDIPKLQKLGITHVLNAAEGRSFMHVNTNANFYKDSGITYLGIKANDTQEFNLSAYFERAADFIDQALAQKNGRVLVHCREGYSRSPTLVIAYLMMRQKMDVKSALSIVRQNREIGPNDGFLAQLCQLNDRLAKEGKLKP
Chain of Tyrosine-protein phosphatase non-receptor type 5 (P54829 whole entry): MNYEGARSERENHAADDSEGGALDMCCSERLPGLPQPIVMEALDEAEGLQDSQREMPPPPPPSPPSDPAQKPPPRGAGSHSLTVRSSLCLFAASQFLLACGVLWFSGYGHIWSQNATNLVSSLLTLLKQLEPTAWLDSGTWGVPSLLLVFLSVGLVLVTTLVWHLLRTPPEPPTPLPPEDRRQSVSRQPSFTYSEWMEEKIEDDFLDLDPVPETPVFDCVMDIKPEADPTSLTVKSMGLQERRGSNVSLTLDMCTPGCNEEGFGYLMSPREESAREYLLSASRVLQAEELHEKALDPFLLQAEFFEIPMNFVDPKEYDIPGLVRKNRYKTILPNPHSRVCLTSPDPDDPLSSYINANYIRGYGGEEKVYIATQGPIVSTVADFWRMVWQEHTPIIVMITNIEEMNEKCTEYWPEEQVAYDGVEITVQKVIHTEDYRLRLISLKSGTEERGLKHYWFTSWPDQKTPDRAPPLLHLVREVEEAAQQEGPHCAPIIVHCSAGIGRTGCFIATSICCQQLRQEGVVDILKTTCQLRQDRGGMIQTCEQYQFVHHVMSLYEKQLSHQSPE
Chain of Serine/threonine-protein kinase TAO1 (Q7L7X3 whole entry): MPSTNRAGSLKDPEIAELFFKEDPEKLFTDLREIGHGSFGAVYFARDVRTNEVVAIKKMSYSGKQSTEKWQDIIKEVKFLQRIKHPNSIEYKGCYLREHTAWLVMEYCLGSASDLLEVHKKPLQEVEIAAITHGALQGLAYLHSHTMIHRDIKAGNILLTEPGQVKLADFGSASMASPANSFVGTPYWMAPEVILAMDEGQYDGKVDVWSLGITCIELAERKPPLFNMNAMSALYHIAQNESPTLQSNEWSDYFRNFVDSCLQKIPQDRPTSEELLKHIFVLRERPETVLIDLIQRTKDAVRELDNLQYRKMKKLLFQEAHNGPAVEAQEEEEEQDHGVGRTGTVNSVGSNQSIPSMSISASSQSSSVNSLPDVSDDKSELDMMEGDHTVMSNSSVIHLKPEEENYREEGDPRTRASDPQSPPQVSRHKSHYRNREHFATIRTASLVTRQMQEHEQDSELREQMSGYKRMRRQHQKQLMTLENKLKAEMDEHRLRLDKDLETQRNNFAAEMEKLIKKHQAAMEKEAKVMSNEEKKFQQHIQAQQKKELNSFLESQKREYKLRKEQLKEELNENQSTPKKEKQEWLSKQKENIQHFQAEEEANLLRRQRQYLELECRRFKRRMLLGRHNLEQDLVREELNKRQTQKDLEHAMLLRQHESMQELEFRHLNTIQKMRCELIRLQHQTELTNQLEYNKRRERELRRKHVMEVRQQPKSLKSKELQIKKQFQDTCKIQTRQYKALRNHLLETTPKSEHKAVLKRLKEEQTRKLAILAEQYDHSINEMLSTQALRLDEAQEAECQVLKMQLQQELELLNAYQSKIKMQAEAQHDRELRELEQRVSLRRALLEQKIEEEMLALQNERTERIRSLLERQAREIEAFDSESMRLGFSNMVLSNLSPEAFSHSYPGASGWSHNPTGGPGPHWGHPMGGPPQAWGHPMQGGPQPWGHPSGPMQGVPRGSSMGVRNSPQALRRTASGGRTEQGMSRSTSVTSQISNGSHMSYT
Chain of Leukocyte tyrosine kinase receptor (P29376 whole entry): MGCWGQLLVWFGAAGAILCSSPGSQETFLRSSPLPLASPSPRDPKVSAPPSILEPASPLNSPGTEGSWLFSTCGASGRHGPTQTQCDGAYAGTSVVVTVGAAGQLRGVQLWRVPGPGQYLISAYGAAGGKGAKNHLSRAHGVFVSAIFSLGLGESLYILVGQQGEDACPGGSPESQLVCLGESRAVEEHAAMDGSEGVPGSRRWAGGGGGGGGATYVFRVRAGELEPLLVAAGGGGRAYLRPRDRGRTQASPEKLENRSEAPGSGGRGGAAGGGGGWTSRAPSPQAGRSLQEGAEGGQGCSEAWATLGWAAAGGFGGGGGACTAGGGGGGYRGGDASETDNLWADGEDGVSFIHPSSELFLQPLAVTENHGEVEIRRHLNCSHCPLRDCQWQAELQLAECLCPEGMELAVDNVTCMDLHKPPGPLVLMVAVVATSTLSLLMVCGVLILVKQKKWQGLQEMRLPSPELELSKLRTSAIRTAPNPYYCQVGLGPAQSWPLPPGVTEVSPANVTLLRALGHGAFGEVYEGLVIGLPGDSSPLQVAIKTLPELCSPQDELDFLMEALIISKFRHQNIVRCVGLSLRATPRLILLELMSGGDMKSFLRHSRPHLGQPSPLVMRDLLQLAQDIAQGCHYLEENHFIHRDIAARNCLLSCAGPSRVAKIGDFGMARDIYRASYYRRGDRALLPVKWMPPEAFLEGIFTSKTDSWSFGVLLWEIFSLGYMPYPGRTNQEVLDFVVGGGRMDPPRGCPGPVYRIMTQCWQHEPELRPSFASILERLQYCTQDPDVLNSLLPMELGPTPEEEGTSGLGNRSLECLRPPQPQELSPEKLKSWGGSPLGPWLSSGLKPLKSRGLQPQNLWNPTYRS
Chain of Induced myeloid leukemia cell differentiation protein Mcl-1 (Q07820 whole entry): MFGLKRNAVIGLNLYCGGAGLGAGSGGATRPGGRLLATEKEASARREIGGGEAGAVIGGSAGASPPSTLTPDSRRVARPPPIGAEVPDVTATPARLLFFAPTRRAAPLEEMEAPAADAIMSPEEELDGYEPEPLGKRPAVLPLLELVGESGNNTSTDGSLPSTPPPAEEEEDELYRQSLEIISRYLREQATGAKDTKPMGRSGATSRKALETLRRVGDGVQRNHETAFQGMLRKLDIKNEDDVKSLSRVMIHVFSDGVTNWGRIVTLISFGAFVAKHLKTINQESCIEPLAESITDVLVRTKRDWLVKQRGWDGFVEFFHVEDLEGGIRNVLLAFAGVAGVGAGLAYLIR

## CCOc1ccc(Oc2c(N3CCCCC3)c(Br)nn(Cc3cccc4ccccc34)c2=O)cc1
[1]
  IC50: > 20 µM (inactive)
[2]
  IC50: > 20 µM (inactive)

## COc1ccc(/C=C2\C(=O)NC(=S)N2C(=O)c2ccc(C)cc2)cc1
[3]
  IC50: 20 µM (active)
[4]
  IC50: 18.8 µM (active)
Prothrombin
  IC50: 40.2 µM (active)
[5]
  IC50: 1.53 µM (not active)

## COc1cc(OC)cc(-c2nc(/C=C/c3ccccc3)no2)c1
[6]
  IC50: > 99 µM (inactive)
[7]
  IC50: > 99 µM (inactive)
Caspase-3
  IC50: > 99 µM (inactive)
[8]
  IC50: > 99 µM (inactive)

## O=C(O)C1CN(Cc2ccc(OCc3ccc(Cl)cc3Cl)cc2)C1
[9]
  Ki: 2.51 µM (active)
[10]
  Ki: 1 µM (active)

## O=C(/C=C/c1cccs1)Nc1cccc(NC(=O)/C=C/c2cccs2)n1
[3]
  IC50: > 100 µM (inactive)
[4]
  IC50: 48.3 µM (active)
Prothrombin
  IC50: 45.6 µM (active)

## COc1cc(OC)cc(Oc2c(Cl)cnn(Cc3cccc4ccccc34)c2=O)c1
[1]
  IC50: > 20 µM (inactive)
[2]
  IC50: 10.1 µM (inactive)

## CCN1CCN(C(=S)c2ccc(OCC(=O)NCc3ccccc3)cc2)CC1
[11]
  IC50: 45.3 µM (inactive)
[12]
  IC50: 3.35 µM (active)
[13]
  IC50: 1.92 µM (active)

## CCCCc1ccc2nc(NC(=O)c3cc(Br)cs3)sc2c1
[6]
  IC50: > 99 µM (inactive)
[7]
  IC50: > 99 µM (inactive)
Caspase-3
  IC50: > 99 µM (inactive)
[8]
  IC50: > 99 µM (inactive)

## Cc1cc(Oc2ccc(C#N)cc2)nc(N2CCOCC2)n1
Insulin-degrading enzyme [14]
  EC50: > 54.7 µM (inactive)
Insulin-degrading enzyme [15]
  EC50: > 54.7 µM (inactive)
HEK293 [16]
  EC50: > 54.7 µM (inactive)
HEK293 [17]
  IC50: > 89.2 µM (inactive)
